Data set [1] can be described thus: Peroxide value (PV), spectrophotometric ferric thiocyanate method, after storage in open glass. It counts as physicochemical. An excerpt: The present invention also contemplates stabilization of the CLA acylglycerides by preventing oxidation of the compounds. The present invention is not limited to any one mechanism. Indeed, an understanding of the mechanism of the invention is not necessary to produce the composition or perform the methods of the present invention. […] After storage in open glass, the PV of CLA was 32; in comparison, the value for linoleic acid was 370.

For data set [2], the system named is rat mammary tumorigenesis. Particulars: administration of CLA; cited from earlier work.
The test system of data set [3] is human melanoma, colorectal and breast cancer cells. Particulars: in vitro; cited from earlier work.
Data set [4] concerns CD-4 and CD-8 lymphocyte subpopulations. As to conditions: oral or parenteral, free acid or salt form; cited from earlier work.
The conditions of data set [5]: diet containing 0.5 percent CLA, cited from earlier work.
For data set [6] the following is noted: CLA incorporated into animal feed; cited from earlier work.

Turning to `CCCCC/C=C\C/C=C\CCCCCCCC(=O)O` [linoleic acid, reference compound], the “peroxide value (PV)” value in data set [1] was 370.
For conjugated linoleic acid [CLA], the “peroxide value (PV)” value in data set [1] is listed as 32. The “effect on rat mammary tumorigenesis” value in data set [2] is “inhibits rat mammary tumorigenesis”. Moreover, the cytotoxicity entry in data set [3] is given as “strong cytotoxic agent”. For the same molecule, in data set [4], the “CD-4 and CD-8 lymphocyte subpopulations” value is “elevation”. Also, the body weight entry in data set [5] is “no increase”. Further, in data set [5] (pigs, mice, humans), the fat content entry is recorded as “significant drop” and the protein mass result is listed as “concomitant increase”. Further, the “efficiency of feed conversion” value in data set [6] was “increased the efficiency of feed conversion”.

Source of the values: patent US6891054B2, “Functional acylglycerides” (Natural AS, priority 2001, dated 2005).
